# Tests used:
# [1] = system: system L-amino acid transporter; conditions: cited from earlier work
# [2] = rabbits; cited from earlier work
# [3] = rodents; cited from earlier work
# GABAA receptors = conditions: cited from earlier work
# GABAB receptors = GABAB receptors (Homo sapiens, UniProt Q9UBS5); conditions: cited from earlier work
# [4] = system: formalin-induced nociceptive responses; conditions: formalin test, cited from earlier work
# [5] = system: N and P/Q subtypes of Ca^2+ channel; conditions: cited from earlier work
# NMDA receptors = target: T1, NMDA receptors (Rattus norvegicus, UniProt P35439); test: NMDA-evoked currents in isolated dorsal horn neurons of control rats, whole-cell patch clamp, with or without PKCM in the pipette; format: cell-based
# T1 construct: Single dorsal horn neurons were isolated from the lamina I and II of the lumbar spinal cord; endogenous in cells; host or cells: acutely dissociated rat lumbar dorsal horn neurons (lamina I/II): control Long-Evans rats or CFA-inflamed Sprague-Dawley rats
# Protocol: Single dorsal horn neurons were isolated from the lamina I and II of the lumbar spinal cord of 13-20 days old Long-Evans rats. After the rat had been anaesthetized with pentobarbitone (0.1 mg/g), the lumbar region of the spinal cord was rapidly removed from the animal and put into an ice-cold, oxygenated dissecting solution. […] Prior to an experiment, neurons from a slice were dissociated by triturating the tissue with a series of fire-polished Pasteur pipettes.
# Electrical recordings: NMDA-receptor mediated currents in normal dorsal horn neurons were examined using the whole-cell patch clamp recording technique at room temperature (20-23° C.). The pipette solution contained (in mM): 120 cesium methanesulphonate, 20 CsCl, 1 CaCl2, 5 BAPTA, 1 MgCl2, 10 HEPES, 2.5 Na2ATP, adjusted to pH 7.2 with CsOH. The external solution contained (mM): NaCl,140; KCl, 4; CaCI2, 2.5; MgCl2, 0.02; HEPES,10; Glucose,10; Sucrose,10; adjusted to pH 7.4 with KOH. […] The resistances of patch pipettes were <20 Mohms. Current recordings were made with an Axopatch-200A patch clamp amplifier (Axon Instruments, Foster City, Calif.). The recorded whole-cell currents were filtered at 2 kHz and sampled at 200 μs per point. The average data are expressed as mean±SEM. Statistical significance of the data was evaluated using Student's t-test or one-way ANOVA. A level of P<0.05 was considered statistically significant.
# Sequence of GABAB receptors (Q9UBS5 15-961 limits assumed): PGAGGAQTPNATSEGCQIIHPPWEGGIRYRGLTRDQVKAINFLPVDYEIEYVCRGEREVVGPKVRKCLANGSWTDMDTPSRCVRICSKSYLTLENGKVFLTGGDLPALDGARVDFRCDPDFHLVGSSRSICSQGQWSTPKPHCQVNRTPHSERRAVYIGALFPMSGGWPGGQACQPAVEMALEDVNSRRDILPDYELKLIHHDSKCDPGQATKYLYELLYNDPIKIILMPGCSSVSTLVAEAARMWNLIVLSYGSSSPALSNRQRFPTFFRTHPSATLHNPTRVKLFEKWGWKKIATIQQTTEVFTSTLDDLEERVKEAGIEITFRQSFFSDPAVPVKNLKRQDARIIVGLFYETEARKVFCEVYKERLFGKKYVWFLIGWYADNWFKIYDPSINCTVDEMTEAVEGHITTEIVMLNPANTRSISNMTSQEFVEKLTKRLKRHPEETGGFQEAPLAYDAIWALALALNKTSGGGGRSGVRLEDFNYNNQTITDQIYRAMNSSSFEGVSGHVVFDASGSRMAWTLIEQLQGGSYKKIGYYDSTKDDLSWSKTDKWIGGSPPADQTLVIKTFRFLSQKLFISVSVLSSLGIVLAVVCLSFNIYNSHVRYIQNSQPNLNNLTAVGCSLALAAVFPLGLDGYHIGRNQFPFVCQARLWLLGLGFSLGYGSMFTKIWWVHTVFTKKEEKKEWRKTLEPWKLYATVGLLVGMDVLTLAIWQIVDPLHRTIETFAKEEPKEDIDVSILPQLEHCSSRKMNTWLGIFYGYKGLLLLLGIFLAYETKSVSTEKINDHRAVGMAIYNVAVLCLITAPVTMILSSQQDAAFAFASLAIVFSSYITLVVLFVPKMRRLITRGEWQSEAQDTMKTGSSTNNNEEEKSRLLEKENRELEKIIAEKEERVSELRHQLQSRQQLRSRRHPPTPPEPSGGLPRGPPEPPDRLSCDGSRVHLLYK
# Sequence of GABAB receptors (O75899 42-941 partner): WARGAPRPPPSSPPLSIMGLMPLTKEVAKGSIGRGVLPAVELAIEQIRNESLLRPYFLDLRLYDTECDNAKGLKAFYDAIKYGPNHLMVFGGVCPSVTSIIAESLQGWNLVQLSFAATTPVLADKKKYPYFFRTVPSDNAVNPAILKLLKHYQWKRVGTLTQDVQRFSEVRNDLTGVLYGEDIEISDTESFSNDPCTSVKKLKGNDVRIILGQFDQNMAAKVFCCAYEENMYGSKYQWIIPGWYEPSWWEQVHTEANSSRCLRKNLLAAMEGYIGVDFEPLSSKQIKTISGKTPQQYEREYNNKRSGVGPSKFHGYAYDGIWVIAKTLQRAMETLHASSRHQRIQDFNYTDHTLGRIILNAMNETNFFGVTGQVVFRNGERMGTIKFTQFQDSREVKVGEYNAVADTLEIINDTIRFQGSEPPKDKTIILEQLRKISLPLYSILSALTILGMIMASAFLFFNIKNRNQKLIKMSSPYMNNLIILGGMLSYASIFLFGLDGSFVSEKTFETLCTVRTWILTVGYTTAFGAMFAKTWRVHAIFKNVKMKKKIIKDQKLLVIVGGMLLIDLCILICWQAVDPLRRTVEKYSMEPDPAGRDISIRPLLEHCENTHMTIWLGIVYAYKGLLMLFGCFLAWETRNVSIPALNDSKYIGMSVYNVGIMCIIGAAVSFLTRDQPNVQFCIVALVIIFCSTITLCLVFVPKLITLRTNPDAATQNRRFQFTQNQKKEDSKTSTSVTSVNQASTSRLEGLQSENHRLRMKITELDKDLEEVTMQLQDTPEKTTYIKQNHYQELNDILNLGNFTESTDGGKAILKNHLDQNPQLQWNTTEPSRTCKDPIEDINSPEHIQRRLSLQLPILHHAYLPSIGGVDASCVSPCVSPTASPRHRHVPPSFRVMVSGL
compound,measurement,setting,value
"NCC1(CC(=O)O)CCCCC1 [GBP, 1-(aminomethyl)cyclohexaneacetic acid]",interaction with system L-amino acid transporter,[1],interact
same,fetal loss,[2],postimplantation fetal loss
same,fetotoxicity,[3],fetotoxic
same,interaction with GABAA receptors,GABAA receptors,does not interact
same,interaction with GABAB receptors,GABAB receptors,does not interact
same,nociceptive behaviors in the transient phase,[4]; first phase,no effect
same,sustained phase of formalin-induced nociceptive responses,[4]; second phase,potently blocking
same,inhibition of Ca^2+ channel activity,[5],< 20%
"NC(CCCP(=O)(O)O)C(=O)O (stereo not shown) [APV, 2-amino-5-phosphonovaleric acid]",block of NMDA-evoked inward current,"NMDA receptors; 20 μM APV, control dorsal horn neuron",blocked
COc1ccc2c(c[n+](C)c3c4cc5c(cc4ccc23)OCO5)c1OC [chelerythrine],block of the action of PKCM on NMDA-activated currents,NMDA receptors; 6.6 μM chelerythrine in external solution,completely blocked

# Reference: patent US20020049160A1, “New strategy for drug design” (priority 2000, published 2002)
